Assays:
Smon0123 (N-18/C-5) [1] = target: T1, Smon0123 (N-18/C-5) (Streptobacillus moniliformis, UniProt D1AWE0); test: X-ray crystallography, […] Å; assay type: binding; conditions: pH 7.5; crystallised with CΔ4S6S, CΔ4S found in the cleft (contaminant or desulfation); construct printed only as Smon0123; not deposited
T1 construct: gene Smon_0123; N-terminal 18 and C-terminal 5 residues truncated (starts Met1-Lys19), expressed in E. coli, purified by DEAE and Superdex 200

[2] = target: T2, Smon0121-Smon0122/Smon0120-Smon0120 (Streptobacillus moniliformis, UniProt D1AWD7); conditions: in presence of Smon0123 and disaccharide ligands
T2 construct: gene Smon_0120

Smon0123 (full-length) = target: T3, Smon0123 (full-length) (Streptobacillus moniliformis, UniProt D1AWE0); test: intrinsic tryptophan fluorescence titration; assay type: binding; conditions: 0.1 μM protein, 0-20 μM ligand, excitation 280 nm
T3 construct: gene Smon_0123; full-length protein, expressed in E. coli, purified by TALON, Resource Q and Superdex 200; tag not described; about 57 kDa, monomer

Smon0123 (N-18/C-5) [3] = target: T1, Smon0123 (N-18/C-5); test: X-ray crystallography, […] Å; assay type: binding; conditions: pH 7.5, 20 °C, calcium bound; cleft between N and C domains

T1 sequence (D1AWE0 entry or part of it): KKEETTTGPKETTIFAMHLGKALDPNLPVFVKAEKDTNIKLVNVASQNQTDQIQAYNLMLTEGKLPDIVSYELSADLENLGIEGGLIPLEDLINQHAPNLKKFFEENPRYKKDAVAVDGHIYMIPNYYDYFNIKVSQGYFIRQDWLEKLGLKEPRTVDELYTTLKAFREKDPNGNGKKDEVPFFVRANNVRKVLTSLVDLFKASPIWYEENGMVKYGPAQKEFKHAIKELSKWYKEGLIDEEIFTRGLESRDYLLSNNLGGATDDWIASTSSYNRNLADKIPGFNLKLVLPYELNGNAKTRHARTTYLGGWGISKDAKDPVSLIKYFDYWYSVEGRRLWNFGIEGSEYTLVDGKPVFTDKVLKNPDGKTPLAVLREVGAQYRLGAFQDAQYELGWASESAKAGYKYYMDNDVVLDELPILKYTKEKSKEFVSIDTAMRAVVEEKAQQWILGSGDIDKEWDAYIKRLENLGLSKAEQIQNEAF
T3 sequence (D1AWE0 entry or part of it): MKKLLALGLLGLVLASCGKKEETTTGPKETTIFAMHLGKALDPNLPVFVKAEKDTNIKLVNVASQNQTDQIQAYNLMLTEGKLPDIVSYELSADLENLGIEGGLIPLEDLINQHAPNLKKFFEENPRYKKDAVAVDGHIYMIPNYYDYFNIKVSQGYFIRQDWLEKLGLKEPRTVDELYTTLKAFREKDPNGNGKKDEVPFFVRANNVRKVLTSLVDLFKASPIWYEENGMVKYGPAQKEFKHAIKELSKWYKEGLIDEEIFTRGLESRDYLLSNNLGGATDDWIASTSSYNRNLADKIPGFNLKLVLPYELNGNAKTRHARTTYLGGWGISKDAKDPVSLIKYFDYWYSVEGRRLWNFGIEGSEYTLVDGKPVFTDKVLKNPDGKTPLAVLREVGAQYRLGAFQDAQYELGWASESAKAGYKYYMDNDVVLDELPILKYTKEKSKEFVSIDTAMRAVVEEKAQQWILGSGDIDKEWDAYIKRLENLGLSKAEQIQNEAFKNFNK
T2 sequence (D1AWD7 entry or part of it): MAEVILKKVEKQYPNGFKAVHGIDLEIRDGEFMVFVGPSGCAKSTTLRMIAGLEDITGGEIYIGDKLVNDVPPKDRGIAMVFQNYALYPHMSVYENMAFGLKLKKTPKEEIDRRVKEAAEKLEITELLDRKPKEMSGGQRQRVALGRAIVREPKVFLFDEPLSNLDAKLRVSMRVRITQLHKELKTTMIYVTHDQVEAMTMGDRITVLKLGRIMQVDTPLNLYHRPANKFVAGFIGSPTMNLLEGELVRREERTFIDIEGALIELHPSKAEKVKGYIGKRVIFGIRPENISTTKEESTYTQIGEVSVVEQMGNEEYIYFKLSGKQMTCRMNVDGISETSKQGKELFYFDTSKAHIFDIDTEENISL
T2 sequence (D1AWD8 entry or part of it, further chain): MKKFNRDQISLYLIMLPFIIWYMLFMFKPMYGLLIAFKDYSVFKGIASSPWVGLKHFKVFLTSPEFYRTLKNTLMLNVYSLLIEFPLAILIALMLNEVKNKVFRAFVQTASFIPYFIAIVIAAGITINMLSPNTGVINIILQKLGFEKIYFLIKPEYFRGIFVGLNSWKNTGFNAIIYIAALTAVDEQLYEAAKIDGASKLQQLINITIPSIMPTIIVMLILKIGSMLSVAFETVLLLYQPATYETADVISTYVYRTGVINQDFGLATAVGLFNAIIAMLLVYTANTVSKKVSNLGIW
T2 sequence (D1AWD9 entry or part of it, further chain): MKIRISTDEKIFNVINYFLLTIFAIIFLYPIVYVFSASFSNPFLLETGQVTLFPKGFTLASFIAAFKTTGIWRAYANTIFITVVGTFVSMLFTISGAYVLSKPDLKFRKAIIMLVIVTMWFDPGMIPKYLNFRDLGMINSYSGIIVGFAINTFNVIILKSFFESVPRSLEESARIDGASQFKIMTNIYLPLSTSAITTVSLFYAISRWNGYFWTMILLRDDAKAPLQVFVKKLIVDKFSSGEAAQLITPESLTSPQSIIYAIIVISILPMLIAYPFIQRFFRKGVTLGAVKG

For `CC(=O)N[C@H]1C(O)O[C@H](CO)[C@H](OS(=O)(=O)O)[C@@H]1O[C@@H]1OC(C(=O)O)=C[C@H](O)[C@H]1O` (stereo partly shown) [CΔ4S], the “X-ray crystallography, 2.50 Å” value (Smon0123 (N-18/C-5) [1]) was “the protein was found to interact with C∆4S but not C∆4S6S in the cleft”.

In the case of `Nc1ncnc2c1ncn2[C@@H]1O[C@H](COP(=O)(O)OP(=O)(O)OP(=O)(O)O)[C@@H](O)[C@H]1O` [ATP], the “molybdenum blue phosphate release, proteoliposomes” value [2] is reported as “phosphate ion concentration generated through ATP hydrolysis in the presence of Smon0123 and ligands”.

For `CC(=O)N[C@H]1C(O)O[C@H](COS(=O)(=O)O)[C@H](OS(=O)(=O)O)[C@@H]1O[C@@H]1OC(C(=O)O)=C[C@H](O)[C@H]1O` (stereo partly shown) [CΔ4S6S], the Kd (Smon0123 (full-length)) was 3.86 ± 0.243 µM and the “X-ray crystallography, 1.95 Å” value (Smon0123 (N-18/C-5) [3]) was “The coordinates and structure factors of Smon0123/CΔ4S6S have been deposited in the Protein Data Bank”.

From article PMC5717064, “Alternative substrate-bound conformation of bacterial solute-binding protein involved in the import of mammalian host glycosaminoglycans” (Scientific Reports, 2017)
